The target of assay [1] is JAK2 (recombinant purified GST-tagged catalytic domain) (Homo sapiens (Human), UniProt O60674). In words: Jak Biochemical HTRF Assay (JAK2). The following applies: [ATP] 8.5 μM. For orientation: In TR-FRET formats the signal depends on donor and acceptor labels being close together.
Assay [2] deals with JAK1 (recombinant purified GST-tagged catalytic domain) (Homo sapiens (Human), UniProt P23458). In words: Jak Biochemical HTRF Assay (JAK1). As to conditions: [ATP] 31.8 μM. A digest of the protocol:
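GST-tagged human catalytic domains of JAK1 or JAK2 phosphorylated a biotinylated peptide substrate for 120 min at room temperature after ATP addition. Reaction quenched with EDTA stop buffer containing streptavidin-Dylight 650 and Eu-pY20 antibody; HTRF 665/615 nm ratio normalized to untreated controls, IC50 from 4-parameter fit.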

IC50 data for 16 compounds are collected here from patent US9957264B2 (Merck Sharp & Dohme Corp., priority 2013, dated 2018).

In general, IC50 refers to the concentration needed to halve the response being measured.

Chain of JAK1 (recombinant purified GST-tagged catalytic domain) (P23458 875-1153): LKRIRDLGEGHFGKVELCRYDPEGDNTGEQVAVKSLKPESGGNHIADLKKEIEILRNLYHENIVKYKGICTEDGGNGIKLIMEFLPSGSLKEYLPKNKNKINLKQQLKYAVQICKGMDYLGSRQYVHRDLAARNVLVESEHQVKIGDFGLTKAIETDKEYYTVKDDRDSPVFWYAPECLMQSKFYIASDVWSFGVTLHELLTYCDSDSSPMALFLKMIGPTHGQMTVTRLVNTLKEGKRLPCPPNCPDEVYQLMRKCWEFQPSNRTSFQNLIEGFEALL
Chain of JAK2 (recombinant purified GST-tagged catalytic domain) (O60674 849-1124): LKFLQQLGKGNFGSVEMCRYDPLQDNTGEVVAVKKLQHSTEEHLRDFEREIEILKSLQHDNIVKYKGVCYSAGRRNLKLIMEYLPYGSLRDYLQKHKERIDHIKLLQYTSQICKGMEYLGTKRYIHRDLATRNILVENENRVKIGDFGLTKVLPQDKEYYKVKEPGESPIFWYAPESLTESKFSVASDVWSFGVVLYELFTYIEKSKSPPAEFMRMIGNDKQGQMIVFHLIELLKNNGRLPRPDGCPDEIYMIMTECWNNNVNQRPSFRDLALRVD

Turning to `COC(=O)N1CCC(CC#N)(n2nc(Nc3ccc(C(C)(O)C(F)(F)F)cc3)c3c(=O)[nH]ccc32)CC1` (single isomer, unassigned) [Example 5-142, (R or S)-methyl 4-(cyanomethyl)-4-(4-oxo-3-((4-(1,1,1-trifluoro-2-hydroxypropan-2-yl)phenyl)amino)-4,5-dihydro-1H-pyrazolo[4,3-c]pyridin-1-yl)piperidine-1-carboxylate], the IC50 in assay [1] is 0.33 nM; in assay [2], 0.13 nM.
`CC1(C)C(=O)Nc2cc(Nc3nn([C@@]4(CC#N)CCCC[C@H]4F)c4cc[nH]c(=O)c34)ccc21` [Example 21-2, [(1R,2R)-1-{3-[(3,3-dimethyl-2-oxo-2,3-dihydro-1H-indol-6-yl)amino]-4-oxo-4,5-dihydro-1H-pyrazolo[4,3-c]pyridin-1-yl}-2-fluorocyclohexyl]acetonitrile]: the IC50 in assay [1] and in assay [2] was 0.04 nM throughout.
`COC(=O)[C@@H]1CC[C@@](CC#N)(n2nc(Nc3ccc(S(C)(=O)=O)cc3)c3c(=O)[nH]ccc32)CO1` (single isomer, unassigned) [Example 5-33, (2S,5S or 2R,5R)-methyl 5-(cyanomethyl)-5-(3-((4-(methylsulfonyl)phenyl)amino)-4-oxo-4,5-dihydro-1H-pyrazolo[4,3-c]pyridin-1-yl)tetrahydro-2H-pyran-2-carboxylate]: the IC50 in assay [1] was determined as 0.23 nM; in assay [2], 0.03 nM.
For `CC(C)OC(=O)[C@@H]1CC[C@@](CC#N)(n2nc(Nc3ccc4c(c3)CN(C(C)(C)C)S4(=O)=O)c3c(=O)[nH]ccc32)CO1` [Example 19-3, (2S,5S)-isopropyl 5-(3-((2-(tert-butyl)-1,1-dioxido-2,3-dihydrobenzo[d]isothiazol-5-yl)amino)-4-oxo-4,5-dihydro-1H-pyrazolo[4,3-c]pyridin-1-yl)-5-(cyanomethyl)tetrahydro-2H-pyran-2-carboxylate], the IC50 in assay [1] was determined as 0.06 nM; in assay [2] it was 0.04 nM.
For `N#CCC1(n2nc(Nc3ccc(C(F)(F)F)cc3)c3c(=O)[nH]ccc32)CCC(N2CC(F)C2)CC1` (single isomer, unassigned) [Example 18-2, 2-(4-(3-fluoroazetidin-1-yl)-1-(4-oxo-3-((4-(trifluoromethyl)phenyl)amino)-4,5-dihydro-1H-pyrazolo[4,3-c]pyridin-1-yl)cyclohexyl)acetonitrile], the results for the IC50 in assay [1] and in assay [2] were 64 nM and 6.8 nM, respectively.
Regarding `CC(C)(C)OC(=O)N1CC(CC#N)(n2nc(Nc3ccc(S(=O)(=O)C(F)(F)F)cc3)c3c(=O)[nH]ccc32)C1` [Example 5-47, tert-butyl 3-(cyanomethyl)-3-[4-oxo-3-({4-[(trifluoromethyl)sulfonyl]phenyl}amino)-4,5-dihydro-1H-pyrazolo[4,3-c]pyridin-1-yl]azetidine-1-carboxylate], the IC50 in assay [1] was 108 nM; in assay [2] it was 7.27 nM.
In the case of `CN(C)S(=O)(=O)c1ccc(Nc2nn(C3(CC#N)CCN(C(=O)CC4CC4)CC3)c3cc[nH]c(=O)c23)cc1` [Example 9-10, 4-({1-[4-(cyanomethyl)-1-(cyclopropylacetyl)piperidin-4-yl]-4-oxo-4,5-dihydro-1H-pyrazolo[4,3-c]pyridin-3-yl}amino)-N,N-dimethylbenzenesulfonamide], the IC50 in assay [1] stood at 1.07 nM; in assay [2], 0.17 nM.
On the same counts, the results for `N#CC[C@]1(n2nc(Nc3ccc(OC(F)(F)F)cc3)c3c(=O)[nH]ccc32)CC[C@H](NC2CCCCC2)CC1` [Example 18-19, Trans 2-(4-(cyclohexylamino)-1-(4-oxo-3-((4-(trifluoromethoxy)phenyl)amino)-4,5-dihydro-1H-pyrazolo[4,3-c]pyridin-1-yl)cyclohexyl)acetonitrile] are 36.6 nM and 0.37 nM.
Consider `N#CC[C@]1(n2nc(Nc3ccc(S(=O)(=O)C(F)F)cc3)c3c(=O)[nH]ccc32)CC[C@@H](N2CC(F)C2)CC1` [Example 18-27, Cis 2-(1-(3-((4-((difluoromethyl)sulfonyl)phenyl)amino)-4-oxo-4,5-dihydro-1H-pyrazolo[4,3-c]pyridin-1-yl)-4-(3-fluoroazetidin-1-yl)cyclohexyl)acetonitrile], for which the half-inhibitory concentration (IC50) came out at 9.07 nM in assay [1] and 2.23 nM in assay [2].
The corresponding values for `N#CC[C@]1(n2nc(Nc3ccc(C(F)(F)F)cc3)c3c(=O)[nH]ccc32)CC[C@H](Nc2ccccc2)CC1` [Example 18-4, Trans 2-(1-(4-oxo-3-((4-(trifluoromethyl)phenyl)amino)-4,5-dihydro-1H-pyrazolo[4,3-c]pyridin-1-yl)-4-(phenylamino)cyclohexyl)acetonitrile] are 102 nM and 6.33 nM.
As for `CC(C)(C)OC(=O)c1ccc(Nc2nn(C3(CC#N)CCCC3)c3cc[nH]c(=O)c23)cc1` [Example 5-127, tert-butyl 4-((1-(1-(cyanomethyl)cyclopentyl)-4-oxo-4,5-dihydro-1H-pyrazolo[4,3-c]pyidin-3-yl)amino)benzoate], the IC50 in assay [1] was 30.5 nM; in assay [2], 4.76 nM.
Turning to `CN(C)S(=O)(=O)c1ccc(Nc2nn([C@]3(CC#N)CCCOC3)c3cc[nH]c(=O)c23)cc1` [Example 5-28, (S)-4-((1-(3-(cyanomethyl)tetrahydro-2H-pyran-3-yl)-4-oxo-4,5-dihydro-1H-pyrazolo[4,3-c]pyridin-3-yl)amino)-N,N-dimethyl benzenesulfonamide], the IC50 worked out at 0.29 nM in assay [1] and 0.13 nM in assay [2].
On the same counts, the results for `CN(C)CC(=O)N1CCC(CC#N)(n2nc(Nc3ccc(S(=O)(=O)N(C)C)cc3)c3c(=O)[nH]ccc32)CC1` [Example 9-4, 4-({1-[4-(cyanomethyl)-1-(N,N-dimethylglycyl)piperidin-4-yl]-4-oxo-4,5-dihydro-1H-pyrazolo[4,3-c]pyridin-3-yl}amino)-N,N-dimethylbenzenesulfonamide] are 5.17 nM and 0.65 nM.
For `CN(C)S(=O)(=O)c1ccc(Nc2nn(C3(CC#N)CCN(C(=O)C4CC4)CC3)c3cc[nH]c(=O)c23)cc1` [Example 9-6, 4-({1-[4-(cyanomethyl)-1-(cyclopropylcarbonyl)piperidin-4-yl]-4-oxo-4,5-dihydro-1H-pyrazolo[4,3-c]pyridin-3-yl}amino)-N,N-dimethylbenzenesulfonamide], the IC50 was found to be 0.29 nM in assay [1] and 0.08 nM in assay [2].
`N#CC[C@@]1(n2nc(Nc3ccc(C(N)C(F)(F)F)cc3)c3c(=O)[nH]ccc32)CCCOC1` (single isomer, unassigned) [Example 5-187, {(3S)-3-[3-({4-[(1R or 1S)-1-amino-2,2,2-trifluoroethyl]phenyl}amino)-4-oxo-4,5-dihydro-1H-pyrazolo[4,3-c]pyridin-1-yl]tetrahydro-2H-pyran-3-yl}acetonitrile]: the results for the IC50 in assay [1] and in assay [2] were 0.58 nM and 0.19 nM, respectively.
Take `Cc1cc(Nc2nn([C@@]3(CC#N)CCOC[C@H]3F)c3cc[nH]c(=O)c23)ccc1C(=O)N1CCSCC1` (single isomer, unassigned) [Example 5-261, 2-((3S,4S or 3R,4R)-3-fluoro-4-(3-(3-methyl-4-(thiomorpholine-4-carbonyl)phenylamino)-4-oxo-4,5-dihydropyrazolo[4,3-c]pyridin-1-yl)-tetrahydro-2H-pyran-4-yl)acetonitrile]: the IC50 in assay [1] stood at 2.74 nM; in assay [2], 2.26 nM.
